{"source": "paper PMC10820816", "about": "“Drug Synergism of Anticancer Action in Combination with Favipiravir and Paclitaxel on Neuroblastoma Cells” (Medicina, 2023)", "key": {"[1]": {"system": "SHSY-5Y neuroblastoma cells", "test": "Flow cytometry analysis (FITC Annexin V / PI)", "format": "cell-based, human", "conditions": "FPV alone 39.06, 19.53, 9.76 µg/mL", "protocol": "(§1) The human dermal fibroblast cell (HDFa, ATCC® PCS-201-012™) culture was grown in the DMEM medium supplemented with 1% penicillin/streptomycin, 10% FBS and 5% CO2 at a 37 °C temperature until the cultures reached 80% confluency. The human neuroblastoma cell (SH-SY5Y, ATCC® CRL-2266™) line was cultured in DMEM/F12 culture media containing 1% penicillin/streptomycin and 10% fetal bovine serum at 37 °C and 5% CO2. Neuroblastoma cell cultures were incubated to grow up to 80% cell density.\n(§2) Flow cytometry analysis was performed by using the FITC Annexin V/Dead Cell Apoptosis Kit with FITC Annexin V and PI according to the producer’s recommendations. Further, 5 × 10^4 cells were collected by trypsinization and centrifugation. The cells were resuspended in 500 μL of 1× binding buffer and 5 μL of propidium iodide, and the Annexin V-FITC (50 μg/mL) dyes were added to the cultures and incubated in the dark for 5 min. Finally, the cultures were analyzed via the use of flow cytometry (The CyFlow® Cube 6, Norderstedt, Germany)."}, "[2]": {"system": "HDFa healthy cell cultures", "test": "Hoechst 33258 fluorescent staining and nuclear abnormality analysis", "format": "cell-based, human", "design": "MN (micronuclei) / Ntc (notched nuclei): unit not given here", "conditions": "for Abnormality Numbers/1000 Cells / L (lobed nuclei) / MN (micronuclei) / Ntc (notched nuclei): 24 h; for nuclear anomaly change compared to negative control: Hoechst 33258 staining", "protocol": "as §1\nThe Hoechst 33258 nuclear staining method was used to monitor abnormalities in the nuclear structures of a healthy HDFa cell culture. Tested drugs were applied to the HDFa cell cultures at various concentrations, and the cell cultures were incubated at 37 °C for 24 h. Then, HDFa cells were fixed by using 4% paraformaldehyde at 4 °C for 30 min. After the incubation period, the cell cultures were washed with PBS two times. A total of 1 µM Hoechst 33258 fluorescent dye was added to the samples and incubated at room temperature for 5 min. Nuclear morphologies were monitored and photographed under a fluorescent microscope (Leica® DM IL LED, Wetzlar, Germany)."}, "CYP2C8": {"system": "CYP2C8", "design": "method as in PMID 34339547", "conditions": "cited from earlier work"}, "[3]": {"system": "SHSY-5Y neuroblastoma cells", "test": "MTT cell viability assay on SH-SY5Y neuroblastoma cells", "format": "cell-based, human", "conditions": "24 h, p < 0.05", "protocol": "as §1\n(§3) Cell viability analyses were performed on HDFa and SH-SY5Y by using the 3-(4,5-dimethylthiazol-2-yl)-2,5-diphenyltetrazolium bromide (MTT) technique. Briefly, the compounds were applied to cell cultures at defined concentration intervals (1.65 µg/mL to 100 µg/mL) for 24 h. At the end of the incubation period, 10 µL of the MTT solution ([…]) was added to each culture well, and the samples were incubated at 37 °C for 3 h. Then, the culture mediums were discarded, and 100 µL of DMSO was added to the samples to dissolve formazan crystal to obtain a purple/blue color. A microplate reader was used to measure the color intensities at a 570 nm wavelength."}, "[4]": {"test": "MTT cell viability assay on SH-SY5Y neuroblastoma cells", "format": "cell-based, human", "conditions": "human, SH-SY5Y neuroblastoma cells, SHSY-5Y, PTX 10 µg/mL alone", "protocol": "as §1, §3"}, "[5]": {"system": "human fibroblast (HDFa) cells", "test": "MTT cell viability assay on human fibroblast (HDFa) cells", "format": "cell-based", "conditions": "24 h, p < 0.05", "protocol": "as §1, §3"}, "[6]": {"test": "Flow cytometry analysis (FITC Annexin V / PI)", "format": "cell-based, human", "conditions": "human, SH-SY5Y neuroblastoma cells, SHSY-5Y, PTX 10 µg/mL", "protocol": "as §1, §2"}}}
{"molecule": "NC(=O)c1nc(F)c[nH]c1=O", "note": "[FPV, Favipiravir]", "values": [{"measurement": "change in cell viability", "setting": "[1]", "result": "did not cause a significant change in cell viability"}, {"measurement": "Abnormality Numbers/1000 Cells", "setting": "[2]; FPV 9.7 µg/mL", "result": "0.020 ± 0.008", "unit": "a"}, {"measurement": "L (lobed nuclei)", "setting": "[2]; FPV 9.7 µg/mL", "result": 7}, {"measurement": "MN (micronuclei)", "setting": "[2]; FPV 9.7 µg/mL", "result": 8}, {"measurement": "Ntc (notched nuclei)", "setting": "[2]; FPV 9.7 µg/mL", "result": 5}, {"measurement": "Abnormality Numbers/1000 Cells", "setting": "[2]; FPV 19.5 µg/mL", "result": "0.019 ± 0.016", "unit": "a"}, {"measurement": "L (lobed nuclei)", "setting": "[2]; FPV 19.5 µg/mL", "result": 6}, {"measurement": "MN (micronuclei)", "setting": "[2]; FPV 19.5 µg/mL", "result": 6}, {"measurement": "Ntc (notched nuclei)", "setting": "[2]; FPV 19.5 µg/mL", "result": 7}, {"measurement": "Abnormality Numbers/1000 Cells", "setting": "[2]; FPV 39 µg/mL", "result": "0.019 ± 0.007", "unit": "a"}, {"measurement": "L (lobed nuclei)", "setting": "[2]; FPV 39 µg/mL", "result": 7}, {"measurement": "MN (micronuclei)", "setting": "[2]; FPV 39 µg/mL", "result": 7}, {"measurement": "Ntc (notched nuclei)", "setting": "[2]; FPV 39 µg/mL", "result": 5}, {"measurement": "nuclear anomaly change compared to negative control", "setting": "[2]", "result": "no significant numerical anomaly change"}, {"measurement": "IC50, concentration-dependent inhibitory effect on CYP2C8", "setting": "CYP2C8", "result": 74.9, "unit": "µg/mL"}]}
{"molecule": "CC(=O)O[C@H]1C(=O)[C@@]2(C)[C@H]([C@H](OC(=O)c3ccccc3)[C@]3(O)C[C@H](OC(=O)[C@H](O)[C@@H](NC(=O)c4ccccc4)c4ccccc4)C(C)=C1C3(C)C)[C@]1(OC(C)=O)CO[C@@H]1C[C@@H]2O", "note": "[PTX, Paclitaxel]", "values": [{"measurement": "concentrations causing a significant decrease in cell viability (cytotoxic effect)", "setting": "[3]", "result": "≥ 312.5", "unit": "ng/mL"}, {"measurement": "viability at 24 h, 10 µg/mL", "setting": "[4]", "result": 37, "unit": "%"}, {"measurement": "concentrations causing a significant cytotoxic / viability-reducing effect", "setting": "[5]", "result": 10000, "unit": "ng/mL"}, {"measurement": "viability at 10 µg/mL", "setting": "[6]", "result": "~37", "unit": "%"}, {"measurement": "nuclear anomaly change compared to negative control", "setting": "[2]", "result": "no significant numerical anomaly change"}, {"measurement": "Abnormality Numbers/1000 Cells", "setting": "[2]; PTX 10 µg/mL", "result": "0.019 ± 0.013", "unit": "a"}, {"measurement": "L (lobed nuclei)", "setting": "[2]; PTX 10 µg/mL", "result": 5}, {"measurement": "MN (micronuclei)", "setting": "[2]; PTX 10 µg/mL", "result": 8}, {"measurement": "Ntc (notched nuclei)", "setting": "[2]; PTX 10 µg/mL", "result": 6}]}
